Laboratory results from patent US8273724B2, “Melanoma antigens and their use in diagnostic and therapeutic methods” (The United States of America, as represented by the …, priority 1994, dated 2012).
Like-named read-outs stand apart in the source and are kept apart here. Where a SMILES comes first, the peptide text is derived from it.

Tests used:
[1] = target: T1, HLA-A2.1 (Homo sapiens, UniProt P04439, D140Y/D185E/D98H/E176V/E277Q/G131W/G231S/I119V/I121R/I166T/I218V/L300P/L318F/N151K/N90K/P208A/P217A/Q86G/Q94H/R138H/R169H/T345S); assay: Peptide binding assay to HLA-A2.1, competition with radiolabeled HBc18-27 (Example 4)
[2] = test system: HLA-A2.1+ T2 cells; conditions: for TIL that recognize the peptide: cytotoxicity assays, T2 preincubated with peptide
[3] = target: T1, HLA-A2.1; assay: HLA-A2.1 binding assay of modified peptides, inhibition of radiolabeled Hbc 18-27 (Example 5)
[4] = test system: T2 cells; assay: Induction of peptide specific CTL from PBL, 51Cr release against T2 cells with or without peptide (Example 5); assay type: cell-based, human; conditions: E:T = 3D40:1
Experimental: (§1) Induction of peptide specific CTL PBMC were separated from peripheral blood of HLA-A2+ melanoma patients and normal donors by centrifugation on Ficoll-Hypaque gradients and used as fresh or cryopreserved samples. […] Two days later, 12 IU/ml interleukin 2 (IL-2) (Chiron Co., Emeryville, Calif.) were added to the cultures. Lymphocytes were then restimulated weekly as follows: responder cells were harvested, washed once and replated in 24-well plates at a concentration of 2.5×10^5 cells/ml in CM. Autologous PBMC were thawed, washed twice in PBS, resuspended at 5-8×10^6 cells/ml in CM and pulsed with 1 ug/ml peptide in 15-ml conical tubes (5 ml/tube) for 3 hours at 37° C. These PBMC (stimulators) were then irradiated at 3000 rads, washed once in PBS and added to the responder cells at responder:stimulator ratios ranging between 1:3 and 1:10. The next day, 12 IU/ml IL-2 were added to the cultures. The activity of these CTL was tested by cytotoxicity assays after at least 2 rounds (14 days) of peptide stimulation. To generate CTL from TIL cultures, the dissociated tumor suspension were cultured for 1-2 days in 10% FCS RPMI-1640 medium to allow tumor cell adherence. The lymphocytes, recovered from the non-adherent fraction, were used for the induction of peptide specific CTL as described above.
(§2) Assessment of antigen recognition by CTL. ^51Cr release cytotoxic assays were performed to detect the recognition of peptide and melanoma cells by CTL. To analyze peptide recognition, T2 cell lines were preincubated for 2 h at 37° C. with 1 ug/ml peptide, washed and used as target cells in a ^51Cr release cytotoxic assay. The melanoma lines 624mel was established in our laboratory (See Example 1).

[5] = test system: 624mel melanoma cell line; assay: Induction of peptide specific CTL from PBL, 51Cr release against melanoma cells (Example 5); assay type: cell-based, human; conditions: for % specific lysis by PBL stimulated with the peptide: target 624mel, E:T = 3D40:1
Experimental: as §1, §2

[6] = test system: T2 cell lines preincubated with peptide; assay: Recognition of modified peptides by natural epitope (M9-2, G9-154, G9-209, G9-280) reactive T-cells, 51Cr release on peptide-pulsed T2 cells (Example 5); assay type: cell-based, human
Outline: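 T2 target cells were pulsed with 1 ug/ml peptide for 2 h at 37° C., then washed. CTL recognition was measured by ^51Cr release cytotoxicity.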

[7] = test system: T2 cells preincubated with peptides; assay: IFN-γ / cytokine release by TIL incubated with T2 cells preincubated with peptides; assay type: cell-based, human; conditions: T2 cells preincubated with peptide; data not shown
[8] = Exp. 1, peptide 1 ug/ml, TIL 620-1
[9] = Exp. 1, peptide 1 ug/ml, TIL 620-2
[10] = Exp. 1, peptide 1 ug/ml, TIL 660-1
[11] = Exp. 1, peptide 1 ug/ml, TIL 1143
[12] = Exp. 1, peptide 1 ug/ml, TIL 1200
[13] = Exp. 1, peptide 1 ug/ml, TIL 1235
[14] = Exp. 3, peptide 1 ug/ml, TIL 660-3
[15] = Exp. 3, peptide 1 ug/ml, TIL 1143
[16] = Exp. 3, peptide 1 ug/ml, TIL 1200
[17] = Exp. 3, peptide 1 ug/ml, TIL 1235

For `CC(C)C[C@H](NC(=O)[C@@H](N)C(C)C)C(=O)N[C@@H](Cc1ccc(O)cc1)C(=O)N[C@@H](CCCNC(=N)N)C(=O)N[C@@H](Cc1ccc(O)cc1)C(=O)NCC(=O)N[C@@H](CO)C(=O)N[C@@H](Cc1ccccc1)C(=O)N[C@@H](CO)C(=O)N[C@H](C(=O)O)C(C)C` [G10-5] (H-VLYRYGSFSV-OH; N-terminus and C-terminus assumed), the IC50 ([1]; binding to HLA-A2.1) was 0.013 µM, the “Ratio to Standard: binding affinity of the sample peptide to that of the standard peptide” value ([1]; standard peptide 50% inhibition at 5 nM) was 0.38 and the “lysis of T2 cells preincubated with the peptide” value [2] was “repeatedly low”. The “% specific lysis at E:T = 40:1” value [2, 8] was 2%, the “% specific lysis at E:T = 40:1” value [2, 9] was 7% and the “% specific lysis at E:T = 40:1” value [2, 10] was 2%. For the same compound, the “% specific lysis at E:T = 40:1” value [2, 11] was 1%, the “% specific lysis at E:T = 40:1” value [2, 12] was 7% and the “% specific lysis at E:T = 40:1” value [2, 13] was 0%. For the same compound, the “% specific lysis at E:T = 40:1” value [2, 14] was 14%, the “% specific lysis at E:T = 40:1” value [2, 15] was 2% and the “% specific lysis at E:T = 40:1” value [2, 16] was 6%. The “% specific lysis at E:T = 40:1” value [2, 17] was 5% and the “TIL that recognize the peptide” value [2] was “TIL660-3 also recognized”.
With `CC(C)C[C@H](NC(=O)[C@@H](N)Cc1ccc(O)cc1)C(=O)N[C@@H](CCC(=O)O)C(=O)N1CCC[C@H]1C(=O)NCC(=O)N1CCC[C@H]1C(=O)N[C@H](C(=O)N[C@H](C(=O)N[C@@H](C)C(=O)O)[C@@H](C)O)C(C)C` [G9280] the “binding affinity class to HLA-A2.1” value [1] was “inteivediate”, the “HLA-A2.1 binding, in words” value ([3]; natural epitopes) was “not high affinity binders” and the “% specific lysis by PBL stimulated with the peptide” value (from here on “% specific lysis by PBL stimulated”) ([4]; target T2 + G9-280-9V, after 4 stimulations) was 8%. The “% specific lysis by PBL stimulated” value ([4]; target T2 + G9-280, after 4 stimulations) was 11%, the “% specific lysis by PBL stimulated” value ([4]; target T2, after 4 stimulations (Table 20)) was 3% and the “% specific lysis by PBL stimulated” value ([5]; after 4 stimulations (Table 20)) was 11%. For the same compound, the “number of gp100 reactive TIL recognizing the peptide” value ([2]; 4 gp100 reactive TIL from different patients) was 2 of 4, the “% specific lysis at E:T = 40:1” value [2, 8] was 2% and the “% specific lysis at E:T = 40:1” value [2, 9] was 7%. For the same compound, the “% specific lysis at E:T = 40:1” value [2, 10] was 43%, the “% specific lysis at E:T = 40:1” value [2, 11] was 11% and the “% specific lysis at E:T = 40:1” value [2, 12] was 0%. The “% specific lysis at E:T = 40:1” value [2, 13] was 0%, the “% specific lysis at E:T = 40:1” value ([2]; Exp. 2, peptide 1 ng/ml, TIL 620-1) was 2% and the “% specific lysis at E:T = 40:1” value ([2]; Exp. 2, peptide 1 ng/ml, TIL 620-2) was 9%. For the same compound, the “% specific lysis at E:T = 40:1” value ([2]; Exp. 2, peptide 1 ng/ml, TIL 660-2) was 75%, the “% specific lysis at E:T = 40:1” value ([2]; Exp. 2, peptide 1 ng/ml, TIL 1143) was 34% and the “% specific lysis at E:T = 40:1” value ([2]; Exp. 2, peptide 1 ng/ml, TIL 1200) was 1%. For the same compound, the “% specific lysis at E:T = 40:1” value ([2]; Exp. 2, peptide 1 ng/ml, TIL 1235) was 2%, the “% specific lysis at E:T = 40:1” value [2, 14] was 99% and the “% specific lysis at E:T = 40:1” value [2, 15] was 37%. For the same compound, the “% specific lysis at E:T = 40:1” value [2, 16] was 9%, the “% specific lysis at E:T = 40:1” value [2, 17] was 5% and the “TIL that recognize the peptide” value [2] was “recognized by TIL660 and TIL1143”.
With `CC[C@H](C)[C@H](NC(=O)[C@@H](N)CCCCN)C(=O)N[C@@H](Cc1c[nH]c2ccccc12)C(=O)NCC(=O)N[C@@H](CCC(N)=O)C(=O)N[C@@H](Cc1ccc(O)cc1)C(=O)N[C@@H](Cc1c[nH]c2ccccc12)C(=O)N[C@@H](CCC(N)=O)C(=O)N[C@H](C(=O)O)C(C)C` [G9-154-2I] (H-KIWGQYWQV-OH; N-terminus and C-terminus assumed) the IC50 ([3]; modified gp100 G9-154 peptides, read-out: Binding affinity to HLA-A2.1) was 0.003 µM, the “Recognition by G9-154 reactive T-cell” value [6] was “+ (+, recognized)” and the “% specific lysis by PBL stimulated” value ([4]; target T2 + G9-154-2I, after 4 stimulations) was 38%. The “% specific lysis by PBL stimulated” value ([4]; target T2 + G9-154, after 4 stimulations) was 37%, the “% specific lysis by PBL stimulated” value ([4]; target T2, after 4 stimulations (Table 18)) was 1% and the “recognition and lysis of original epitopes and melanoma tumor cells (624 mel) by PBL stimulated with the peptide, compared with natural epitopes” value ([5]; PBL stimulated with autologous PBMC pulsed with peptide) was “better”. For the same compound, the “% specific lysis by PBL stimulated” value ([5]; after 4 stimulations (Table 18)) was 23%.
For `CC[C@H](C)[C@H](NC(=O)CNC(=O)[C@H](C)NC(=O)[C@H](C)N)C(=O)NCC(=O)N[C@H](C(=O)N[C@@H](CC(C)C)C(=O)N[C@H](C(=O)N[C@H](C(=O)O)C(C)C)[C@@H](C)O)[C@@H](C)CC` [M9-2], the “Recognition by M9-2 reactive T-cell” value [6] was “+ (+, recognized)” and the “cytokine secretion (IFN-γ, GM-CSF, TNF-α) by 10 TIL and clone A42” value [7] was “secreted cytokines”.
For `CC(C)C[C@H](NC(=O)[C@H](CCCNC(=N)N)NC(=O)[C@H](CC(C)C)NC(=O)[C@@H](NC(=O)[C@H](C)NC(=O)[C@@H](NC(=O)CNC(=O)[C@H](CC(=O)O)NC(=O)[C@H](CC(C)C)NC(=O)[C@@H](N)CC(C)C)[C@@H](C)O)[C@@H](C)O)C(=O)O` [G10-4], the IC50 [1] was 0.483 µM.
